Numbered stars: 1 amine (or outer) side, 2 acyl side, 3 side chain; on linkers, the order of the positions; unused ones are H or OH. Bridge positions count the residues as written; N and C are the ends. Side chains are listed from the residue outwards. Peptide text beside a SMILES is read from it. * marks the point of attachment. C20 diacid = O=C(O)CCCCCCCCCCCCCCCCCCC(=O)*; γGlu = O=C(O)[C@H](CCC(=O)[*:2])N[*:1]; AEEA = NCCOCCOCC(=O)O
What was measured:
[1] = target: T1, human amylin 3(a) receptor (human calcitonin receptor + RAMP-3) in BHK570 cells (Homo sapiens, UniProt O60896+P30988); assay: ASSAY (II)a functional assay, human amylin receptor (CRE luciferase); format: cell-based; conditions: for EC50: human amylin receptor functional potency, assay (II), read-out: hAmylin-R funct. EC50
T1 construct: expressed in transfected cells
Procedure, shortened: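 Receptor activation is measured as cAMP-driven CRE-luciferase expression in BHK cells expressing the calcitonin receptor, with RAMP-3 co-expressed to form the amylin 3(a) receptor. Cells are exposed to compound for 3 hours at 37° C, and luciferase is then quantified by luminescence.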

[2] = target: T2, rat amylin receptor (rat calcitonin receptor + rat RAMP 3) (Rattus norvegicus, UniProt P32214+Q9JJ73); assay: ASSAY (VI) binding to the rat amylin receptor; conditions: for IC50: binding to rat amylin receptor, read-out: rAmylin-R bind IC50
T2 construct: expressed in transfected cells; host or cells: BHK tk'ts 13 (transient, FuGENE 6), membranes
T2 sequence (P32214 25-479 isoform P32214-2 limits assumed): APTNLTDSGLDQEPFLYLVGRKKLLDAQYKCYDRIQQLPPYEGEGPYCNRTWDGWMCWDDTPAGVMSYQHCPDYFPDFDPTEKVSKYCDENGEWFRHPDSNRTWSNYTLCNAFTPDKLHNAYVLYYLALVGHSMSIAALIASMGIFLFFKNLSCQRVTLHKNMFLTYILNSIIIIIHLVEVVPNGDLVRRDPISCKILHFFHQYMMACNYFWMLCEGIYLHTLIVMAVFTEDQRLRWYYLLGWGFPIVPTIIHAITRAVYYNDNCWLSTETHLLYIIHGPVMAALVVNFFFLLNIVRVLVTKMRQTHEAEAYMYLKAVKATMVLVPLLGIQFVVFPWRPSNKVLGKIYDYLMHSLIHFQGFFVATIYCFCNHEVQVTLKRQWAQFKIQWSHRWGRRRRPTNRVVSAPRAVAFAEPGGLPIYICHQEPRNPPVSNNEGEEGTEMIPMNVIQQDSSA
T2 sequence (Q9JJ73 23-147 partner): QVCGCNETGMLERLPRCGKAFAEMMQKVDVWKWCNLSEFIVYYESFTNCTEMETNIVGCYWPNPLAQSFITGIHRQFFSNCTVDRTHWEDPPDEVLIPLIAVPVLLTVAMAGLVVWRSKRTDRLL
Procedure, shortened: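 Membranes for this rat amylin receptor binding assay came from BHK tk′ts 13 cells. The cells were transiently transfected with rat calcitonin receptor using the FuGENE® 6 reagent from Roche, as the manufacturer recommends. The cells were collected approximately 48 hours after transfection, and membranes were then prepared.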

[3] = target: T3, human amylin receptor (membranes from Amylin 3(a)/CRE-luc cells) (Homo sapiens, UniProt O60896+P30988); assay: ASSAY (V) binding to the human amylin receptor (SPA, 125I-rat amylin); conditions: for IC50: Table 4, read-out: hAmylin-R bind IC50;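 for all read-outs here: competition binding of cell membranes (35 ng/µL) mixed with SPA beads in 384-well plates at 40 µL total volume, read by scintillation counting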
T3 construct: expressed in transfected cells
T3 sequence (P30988 25-474): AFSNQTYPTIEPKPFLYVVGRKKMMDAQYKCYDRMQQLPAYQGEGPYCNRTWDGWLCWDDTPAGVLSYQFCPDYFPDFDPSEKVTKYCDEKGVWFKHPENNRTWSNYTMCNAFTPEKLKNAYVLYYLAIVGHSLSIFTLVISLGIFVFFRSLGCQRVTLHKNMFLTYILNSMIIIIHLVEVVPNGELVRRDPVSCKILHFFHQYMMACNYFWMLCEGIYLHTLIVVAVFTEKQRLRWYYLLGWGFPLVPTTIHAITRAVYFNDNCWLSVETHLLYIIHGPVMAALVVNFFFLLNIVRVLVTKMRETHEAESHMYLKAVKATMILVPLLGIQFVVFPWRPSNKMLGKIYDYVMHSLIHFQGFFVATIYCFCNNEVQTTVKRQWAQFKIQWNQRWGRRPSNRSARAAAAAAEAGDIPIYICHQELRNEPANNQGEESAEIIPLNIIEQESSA
T3 sequence (O60896 24-148 partner): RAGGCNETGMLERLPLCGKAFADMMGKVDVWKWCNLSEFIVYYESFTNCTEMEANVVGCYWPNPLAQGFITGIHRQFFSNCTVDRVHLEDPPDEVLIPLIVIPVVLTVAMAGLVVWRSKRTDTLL

[4] = hCTR funct. EC50 divided by hAmylin-R funct. EC50
[5] = human functional selectivity: hCTR funct. EC50 / hAmylin-R funct. EC50
[6] = Table 7, rat binding selectivity, rCTR IC50 / rAmylin-R IC50
[7] = Table 7a (preferred compounds), rat binding selectivity, rCTR IC50 / rAmylin-R IC50
[8] = ratio of rCTR bind IC50 to rAmylin-R bind IC50
[9] = Table 5, selectivity, hCTR bind IC50 / hAmylin-R bind IC50
[10] = Table 5a, selectivity, hCTR bind IC50 / hAmylin-R bind IC50
[11] = Table 5b, selectivity, hCTR bind IC50 / hAmylin-R bind IC50
[12] = Table 5c, selectivity, hCTR bind IC50 / hAmylin-R bind IC50
[13] = Table 7, human binding selectivity, included for comparison
[14] = Table 7a (preferred compounds), human binding selectivity, included for comparison
[15] = ratio of human calcitonin receptor binding IC50 to human amylin receptor binding IC50
[16] = hCTR funct. EC50 over hAmylin-R funct. EC50

Ratio hCT/hAmylin funct. [1, 4]	Ratio hCT/hAmylin funct. [1, 5]	IC50 ([2]; Table 7) [nM]	Ratio rCT/rAmylin binding [2, 6]	Ratio rCT/rAmylin binding [2, 7]	Ratio rCT/rAmylin binding [2, 8]	Ratio hCT/hAmylin binding [3, 9]	Ratio hCT/hAmylin binding [3, 10]	Ratio hCT/hAmylin binding [3, 11]	Ratio hCT/hAmylin binding [3, 12]	Ratio hCT/hAmylin binding [3, 13]	Ratio hCT/hAmylin binding [3, 14]	Ratio hCT/hAmylin binding [3, 15]	Ratio hCT/hAmylin funct. [1, 16]	SMILES	EC50 [1] [nM]	IC50 [3] [nM]
9.4	9.4	0.276	162.4	162.4	162.4	32.0	32.0	32.0	32.0	32.0	32.0	32.0		CC[C@H](C)[C@H](NC(=O)[C@H](C)NC(=O)CNC(=O)[C@H](Cc1ccccc1)NC(=O)[C@H](CC(N)=O)NC(=O)[C@@H]1CCCN1C(=O)[C@H](CO)NC(=O)[C@H](CO)NC(=O)[C@H](Cc1c[nH]cn1)NC(=O)[C@H](CCCNC(=N)N)NC(=O)[C@H](CC(C)C)NC(=O)[C@H](Cc1ccccc1)NC(=O)CNC(=O)[C@H](C)NC(=O)[C@H](CC(C)C)NC(=O)[C@H](CCCNC(=N)N)NC(=O)[C@H](CCC(N)=O)NC(=O)[C@@H](NC(=O)[C@H](C)NC(=O)[C@@H]1CSSC[C@H](NC(=O)[C@@H](N)CCCCNC(=O)COCCOCCNC(=O)CC[C@H](NC(=O)CCCCCCCCCCCCCCCCCCC(=O)O)C(=O)O)C(=O)N[C@@H](CC(N)=O)C(=O)N[C@@H]([C@@H](C)O)C(=O)N[C@@H](C)C(=O)N[C@@H]([C@@H](C)O)C(=O)N1)[C@@H](C)O)C(=O)N1CCC[C@H]1C(=O)N[C@@H](CO)C(=O)N[C@@H](CO)C(=O)N[C@H](C(=O)N1CCC[C@H]1C(=O)N[C@H](C(=O)NCC(=O)N[C@@H](CO)C(=O)N[C@@H](CC(N)=O)C(=O)N[C@H](C(=O)N[C@@H](Cc1ccc(O)cc1)C(N)=O)[C@@H](C)O)C(C)C)[C@@H](C)O [Example 71] (H-K([AEEA-γGlu-C20 diacid])CNTATCATQRLAGFLRHSSPNFGAIPSSTPVGSNTY-NH2; disulfide 2-7)		
8.7	8.7	0.322	67.0	67.0	67.0	13.9	13.9			13.9	13.9	13.9	8.7	CC[C@H](C)[C@H](NC(=O)[C@H](C)NC(=O)CNC(=O)[C@H](Cc1ccccc1)NC(=O)[C@H](CC(N)=O)NC(=O)[C@@H]1CCCN1C(=O)[C@H](CO)NC(=O)[C@H](CO)NC(=O)[C@H](Cc1c[nH]cn1)NC(=O)[C@H](CCCNC(=N)N)NC(=O)[C@H](CC(C)C)NC(=O)[C@H](Cc1ccccc1)NC(=O)[C@H](CC(N)=O)NC(=O)[C@H](C)NC(=O)[C@H](CC(C)C)NC(=O)[C@H](CCCNC(=N)N)NC(=O)[C@H](CCC(N)=O)NC(=O)[C@@H](NC(=O)[C@H](C)NC(=O)[C@@H]1CSSC[C@H](NC(=O)[C@H](CCCCN)NC(=O)CC[C@H](NC(=O)CCCCCCCCCCCCCCCCCCC(=O)O)C(=O)O)C(=O)N[C@@H](CC(N)=O)C(=O)N[C@@H]([C@@H](C)O)C(=O)N[C@@H](C)C(=O)N[C@@H]([C@@H](C)O)C(=O)N1)[C@@H](C)O)C(=O)N1CCC[C@H]1C(=O)N[C@@H](CO)C(=O)N[C@@H](CO)C(=O)N[C@H](C(=O)N[C@@H](CC(N)=O)C(=O)N[C@H](C(=O)NCC(=O)N1CCC[C@H]1C(=O)N[C@@H](CCC(=O)O)C(=O)N[C@H](C(=O)N[C@@H](Cc1ccc(O)cc1)C(N)=O)[C@@H](C)O)C(C)C)[C@@H](C)O [Example 29] ({C20 diacid-γGlu}-KCNTATCATQRLANFLRHSSPNFGAIPSSTNVGPETY-NH2; disulfide 2-7)		
16.7	16.7	1.37	54.0	54.0	54.0	49.9	49.9	49.9	49.9	49.9	49.9	49.9	16.7	CC[C@H](C)[C@H](NC(=O)[C@H](C)NC(=O)CNC(=O)[C@H](Cc1ccccc1)NC(=O)[C@H](CC(N)=O)NC(=O)[C@@H]1CCCN1C(=O)[C@H](CO)NC(=O)[C@H](CO)NC(=O)[C@H](Cc1c[nH]cn1)NC(=O)[C@H](CCCNC(=N)N)NC(=O)[C@H](CC(C)C)NC(=O)[C@H](Cc1ccccc1)NC(=O)[C@H](CC(N)=O)NC(=O)[C@H](C)NC(=O)[C@H](CC(C)C)NC(=O)[C@H](CCCNC(=N)N)NC(=O)[C@H](CCC(N)=O)NC(=O)[C@@H](NC(=O)[C@H](C)NC(=O)[C@@H]1CSSC[C@H](NC(=O)[C@@H](N)CCCCNC(=O)COCCOCCNC(=O)CC[C@H](NC(=O)CCCCCCCCCCCCCCCCCCC(=O)O)C(=O)O)C(=O)N[C@@H](CC(N)=O)C(=O)N[C@@H]([C@@H](C)O)C(=O)N[C@@H](C)C(=O)N[C@@H]([C@@H](C)O)C(=O)N1)[C@@H](C)O)C(=O)N1CCC[C@H]1C(=O)N[C@@H](CO)C(=O)N[C@@H](CO)C(=O)N[C@H](C(=O)N[C@@H](CC(N)=O)C(=O)N[C@H](C(=O)NCC(=O)N[C@@H](CO)C(=O)N[C@@H](CC(N)=O)C(=O)N[C@H](C(=O)N[C@@H](Cc1ccc(O)cc1)C(N)=O)[C@@H](C)O)C(C)C)[C@@H](C)O [Example 41]	0.26	0.427

SMILES	Ratio hCT/hAmylin funct. [1, 4]	Ratio hCT/hAmylin funct. [1, 5]	IC50 ([2]; Table 7) [nM]	Ratio rCT/rAmylin binding [2, 6]	Ratio rCT/rAmylin binding [2, 7]	Ratio rCT/rAmylin binding [2, 8]	Ratio hCT/hAmylin binding [3, 9]	Ratio hCT/hAmylin binding [3, 10]	Ratio hCT/hAmylin binding [3, 11]	Ratio hCT/hAmylin binding [3, 12]	Ratio hCT/hAmylin binding [3, 13]	Ratio hCT/hAmylin binding [3, 14]	Ratio hCT/hAmylin binding [3, 15]	Ratio hCT/hAmylin funct. [1, 16]	EC50 [1] [nM]	IC50 [3] [nM]
CC[C@H](C)[C@H](NC(=O)[C@H](C)NC(=O)CNC(=O)[C@H](Cc1ccccc1)NC(=O)[C@H](CC(N)=O)NC(=O)[C@@H]1CCCN1C(=O)[C@H](CO)NC(=O)[C@H](CO)NC(=O)[C@H](Cc1c[nH]cn1)NC(=O)[C@H](CCCNC(=N)N)NC(=O)[C@H](CC(C)C)NC(=O)[C@H](Cc1ccccc1)NC(=O)[C@H](CC(N)=O)NC(=O)[C@H](C)NC(=O)[C@H](CC(C)C)NC(=O)[C@H](CCCNC(=N)N)NC(=O)[C@H](CCC(N)=O)NC(=O)[C@@H](NC(=O)[C@H](C)NC(=O)[C@@H]1CSSC[C@H](NC(=O)[C@@H](N)CCCCNC(=O)COCCOCCNC(=O)CC[C@H](NC(=O)CCCCCCCCCCCCCCCCCCC(=O)O)C(=O)O)C(=O)N[C@@H](CC(N)=O)C(=O)N[C@@H]([C@@H](C)O)C(=O)N[C@@H](C)C(=O)N[C@@H]([C@@H](C)O)C(=O)N1)[C@@H](C)O)C(=O)N1CCC[C@H]1C(=O)N[C@@H](CO)C(=O)N1CCC[C@H]1C(=O)N[C@H](C(=O)N1CCC[C@H]1C(=O)N[C@H](C(=O)NCC(=O)N[C@@H](CO)C(=O)N[C@@H](CC(N)=O)C(=O)N[C@H](C(=O)N[C@@H](Cc1ccc(O)cc1)C(N)=O)[C@@H](C)O)C(C)C)[C@@H](C)O [Example 54] (H-K([AEEA-γGlu-C20 diacid])CNTATCATQRLANFLRHSSPNFGAIPSPTPVGSNTY-NH2; disulfide 2-7; N-terminus assumed)	9.6	9.6	0.049	179.4	179.4	179.4	146.1	146.1	146.1	146.1	146.1	146.1	146.1		0.103	0.03

From US9023789B2, “Amylin analogs and pharmaceutical compositions thereof” (Novo Nordisk A/S, priority 2012, dated 2015)
